The target of experiment [1] is full-length human PTPN2 (TC45) (1-387) protein (Homo sapiens (Human), UniProt P17706). The experiment can be described thus: Enzymatic assay, full-length PTPN2 DiFMUP assay. Type of experiment: biochemical. The note with it: 0.5 nM PTPN2, 100 μM DiFMUP, 30 min at room temperature. The text has this: Example A: Enzymatic Assay Used to Determine Potency of PTPN2 Inhibitors
Compounds were subsequently added using a Tecan D300e dispenser. […] A four-parameter curve fit was used to determine IC50 values from % inhibition data.

Experiment [2] concerns murine B16F10 melanoma cell line. The experiment can be described thus: B16F10 IFNγ-induced cellular growth inhibition assay (xCELLigence RTCA). Format: cell-based. As to conditions: Mus musculus, B16-F10, 48 h; read-out: B16 IFNγ Mediated Growth Inhibition Assay: AVG IC50. The protocol:
Example B: B16F10 Cellular Growth Inhibition Assay
Compound activity was determined using an interferon gamma (IFNγ)-induced cellular growth inhibition assay with the murine B16F10 melanoma cell line on an Agilent xCELLigence Real-Time Cell Analysis platform (RTCA). RTCA E-Plate View 96 plates (Agilent, 300601010) were pre-equilibrated with 50 μL of assay media (DMEM+10% FBS, Gibco 10566-024, Gibco 10082-147) at 37° C., in a humidified incubator before taking an initial measurement of impedance (sweep). B16F10 cells cultured in assay media were dissociated with TrypLE Express (Gibco 12605-010) for five minutes at 37° C., diluted in 3 volumes of assay buffer, centrifuged for 5 minutes at 500×g at room temperature before diluting cells to 7,700 cells/mL in assay media, plating 130 μL/well (1,000 cells/well) in the inner 60 wells of the assay plate, and adding 150 μL of assay media to the outer wells of the plate. Cells were incubated at room temperature for 20 min to allow cells to settle before placing them in the xCELLigence reader and incubating overnight at 37° C., sweeping wells every 15 minutes. After 24 hours, well readings were paused, plates were removed from the incubator and compounds were added using a Tecan D300e dispenser. All wells were normalized to a final concentration of 0.5% DMSO. Following a 30 min incubation at 37° C., recombinant mouse IFNγ (R&D Systems™ 485 MI100) was diluted to 10 ng/ml in assay media and 20 μL was added to assay wells (1 ng/mL final concentration). Assay plates were placed in the xCELLigence reader and swept every 15 minutes. After 48 hours, well readings were normalized to the time point immediately preceding compound addition and the area under the growth curve (AUC) was calculated by the RTCA software and exported.

Bounds are passed on as bounds.

A word on the IC50: it is the point on the concentration scale where inhibition reaches its midpoint.

full-length human PTPN2 (TC45) (1-387) protein, sequence (P17706 other isoform, or with tags, fused parts or gaps): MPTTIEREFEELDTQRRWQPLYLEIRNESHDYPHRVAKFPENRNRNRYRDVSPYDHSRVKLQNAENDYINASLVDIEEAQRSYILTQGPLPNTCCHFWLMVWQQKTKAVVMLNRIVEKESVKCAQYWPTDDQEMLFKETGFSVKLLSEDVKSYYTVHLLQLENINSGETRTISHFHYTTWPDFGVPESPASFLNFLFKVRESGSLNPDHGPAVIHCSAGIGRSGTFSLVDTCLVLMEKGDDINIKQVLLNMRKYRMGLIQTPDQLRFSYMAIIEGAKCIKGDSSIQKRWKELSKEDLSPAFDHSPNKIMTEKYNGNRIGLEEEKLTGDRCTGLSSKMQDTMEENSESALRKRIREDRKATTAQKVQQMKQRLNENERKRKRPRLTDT

Turning to `O=C1CN(c2c(O)cc3c(c2F)CCCN3Cc2ccccc2)S(=O)(=O)N1` [Example 7], half-maximal inhibition in experiment [1] (IC50) was put at 532 nM.

On to `CN1CCCc2c1cc(O)c(N1CC(=O)NS1(=O)=O)c2F` [Example 4, 5-(5-fluoro-7-hydroxy-1-methyl-1,2,3,4-tetrahydroquinolin-6-yl)-1,2,5-thiadiazolidin-3-one 1,1-dioxide], for which the values for the IC50 in experiment [1] and in experiment [2] were 875 nM and 12700 nM, respectively.

`COc1cc2c(c(F)c1N1CC(=O)NS1(=O)=O)CC(NCCC(C)C)CN2C` (stereo not drawn) [Example 1, 5-(5-fluoro-3-(isopentylamino)-7-methoxy-1-methyl-1,2,3,4-tetrahydroquinolin-6-yl)-1,2,5-thiadiazolidin-3-one 1,1-dioxide]: in experiment [1], the IC50 was over 30000 nM.

In the case of `CC(C)CCN1CCCc2c1cc(O)c(N1CC(=O)NS1(=O)=O)c2F` [Example 8], the IC50 in experiment [1] turned out to be 957 nM.

In the case of `O=C1CN(c2c(O)cc3c(c2F)CCCN3)S(=O)(=O)N1` [Example 3, 5-(5-fluoro-7-hydroxy-1,2,3,4-tetrahydroquinolin-6-yl)-1,2,5-thiadiazolidin-3-one 1,1-dioxide], the IC50 is 131 nM in experiment [1] and 3330 nM in experiment [2].

`CC(C)CCNC1CNc2cc(O)c(N3CC(=O)NS3(=O)=O)c(F)c2C1` (stereo not drawn) [Example 2, 5-(5-fluoro-7-hydroxy-3-(isopentylamino)-1,2,3,4-tetrahydroquinolin-6-yl)-1,2,5-thiadiazolidin-3-one 1,1-dioxide]: the IC50 in experiment [1] worked out at 13 nM; in experiment [2], 1450 nM.

As to `CC(C)CN1CCCc2c1cc(O)c(N1CC(=O)NS1(=O)=O)c2F` [Example 6], in experiment [1], the IC50 stood at 959 nM.

For `O=C1CN(c2c(O)cc3c(c2F)CCCN3CCc2ccccc2)S(=O)(=O)N1` [Example 9], the IC50 in experiment [1] was 1620 nM.

Compound `CCN1CCCc2c1cc(O)c(N1CC(=O)NS1(=O)=O)c2F` [Example 5] returned an IC50 in experiment [1] of 878 nM.

These data come from patent US20250136564A1, “PROTEIN TYROSINE PHOSPHATASE INHIBITORS AND USES THEREOF” (Nerio Therapeutics, Inc., priority 2022, published 2025).
